What was measured:
[1] = Microsomal stability assay; type: in vitro ADME; details: 1 mg/ml human hepatic microsomes, 37° C., half-life by LC-MS/MS; yes = stability ≥15 minutes
Protocol: The metabolic stability of some test compounds was determined in hepatic human and mouse microsomes. The compound was incubated with 1 mg/ml human or mouse hepatic microsomes at 37° C. with continuous shaking. Aliquots were removed at various time points between 5 minutes and 2 hours and acetonitrile was added to quench the reactions and precipitate the proteins. Samples were then centrifuged through 0.45 μm filter plates and half-lives were determined by LC-MS/MS.

[2] = test system: PK1 neuroblastoma cells exposed to TPrP; experiment: cells; type: cell-based; details: Neuroblastoma cell, 96 h, read-out: TPrP EC50

Cc1cc(-c2nc(Nc3ccc(S(=O)(=O)O)cc3)sc2CO)ccn1 [SR-33526, 4-((5-(Hydroxymethyl)-4-(2-methylpyridin-4-yl)thiazol-2-yl)amino)benzenesulfonic acid]
Stabilty in human microsomes ≥ 15 minutes [1]: yes
EC50 [2]: 150 nM

O=S(=O)(O)c1ccc(Nc2nc(-c3ccnc(Cl)c3)c(CO)s2)cc1 [SR-33527, 4-((4-(2-Chloropyridin-4-yl)-5-(hydroxymethyl)thiazol-2-yl)amino)benzenesulfonic acid]
Stabilty in human microsomes ≥ 15 minutes [1]: yes
EC50 [2]: 160 nM

Cc1cc(-c2nc(Nc3ccc(S(C)(=O)=O)c(Cl)c3)sc2CO)ccn1 [SR-33528, (2-((3-Chloro-4-(methylsulfonyl)phenyl)amino)-4-(2-methylpyridin-4-yl)thiazol-5-yl)methanol]
Stabilty in human microsomes ≥ 15 minutes [1]: yes
EC50 [2]: 80 nM

CS(=O)(=O)c1ccc(Nc2nc(-c3ccnc(Cl)c3)c(CO)s2)cc1Cl [SR-33529, (2-((3-Chloro-4-(methylsulfonyl)phenyl)amino)-4-(2-chloropyridin-4-yl)thiazol-5-yl)methanol]
Stabilty in human microsomes ≥ 15 minutes [1]: yes
EC50 [2]: 80 nM

Cc1cc(-c2csc(Nc3ccc(S(=O)(=O)O)cc3)n2)cc(C)n1 [SR-33784, 4-((4-(2,6-Dimethylpyridin-4-yl)thiazol-2-yl)amino)benzenesulfonic acid]
Stabilty in human microsomes ≥ 15 minutes [1]: yes
EC50 [2]: 25 nM

O=S(=O)(O)c1ccc(Nc2nc(-c3ccncc3)cs2)cc1 [SR-33785, 4-((4-(Pyridin-4-yl)thiazol-2-yl)amino)benzenesulfonic acid]
Stabilty in human microsomes ≥ 15 minutes [1]: yes
EC50 [2]: 40 nM

Cc1cc(-c2csc(Nc3ccc(S(C)(=O)=O)cc3)n2)cc(C)n1 [SR-33786, 4-(2,6-Dimethylpyridin-4-yl)-N-(4-(methylsulfonyl)phenyl)thiazol-2-amine]
Stabilty in human microsomes ≥ 15 minutes [1]: yes
EC50 [2]: 20 nM

COc1cc(-c2csc(Nc3ccc(S(C)(=O)=O)c(Cl)c3)n2)cc(OC)n1 [SR-33787, N-(3-chloro-4-(methylsulfonyl)phenyl)-4-(2,6-dimethoxypyridin-4-yl)thiazol-2-amine]
Stabilty in human microsomes ≥ 15 minutes [1]: yes
EC50 [2]: 80 nM

CS(=O)(=O)c1ccc(Nc2nc(-c3ccncc3)cs2)cc1 [SR-33788, N-(4-(methylsulfonyl)phenyl)-4-(pyridin-4-yl)thiazol-2-amine]
Stabilty in human microsomes ≥ 15 minutes [1]: yes
EC50 [2]: 80 nM

COc1cc(-c2csc(Nc3ccc(S(C)(=O)=O)cc3)n2)cc(OC)n1 [SR-33789, 4-(2,6-Dimethoxypyridin-4-yl)-N-(4-(methylsulfonyl)phenyl)thiazol-2-amine]
Stabilty in human microsomes ≥ 15 minutes [1]: yes
EC50 [2]: 300 nM

COc1cc(-c2csc(Nc3ccc(S(N)(=O)=O)cc3)n2)cc(OC)n1 [SR-33790, 4-((4-(2,6-Dimethoxypyridin-4-yl)thiazol-2-yl)amino)benzenesulfonamide]
Stabilty in human microsomes ≥ 15 minutes [1]: yes
EC50 [2]: 35 nM

Cc1cc(-c2csc(Nc3ccc(S(N)(=O)=O)cc3)n2)cc(C)n1 [SR-33791, 4-((4-(2,6-Dimethylpyridin-4-yl)thiazol-2-yl)amino)benzenesulfonamide]
Stabilty in human microsomes ≥ 15 minutes [1]: yes
EC50 [2]: 25 nM

Cc1cc(-c2csc(Nc3ccc(S(C)(=O)=O)cc3)n2)ccn1 [SR-33793, 4-(2-Methylpyridin-4-yl)-N-(4-(methylsulfonyl)phenyl)thiazol-2-amine]
Stabilty in human microsomes ≥ 15 minutes [1]: yes
EC50 [2]: 20 nM

Cc1cc(-c2nc(Nc3ccc(S(C)(=O)=O)cc3)sc2CO)cc(C)n1 [SR-33794, (4-(2,6-Dimethylpyridin-4-yl)-2-((4-(methylsulfonyl)phenyl)amino)thiazol-5-yl)methanol]
Stabilty in human microsomes ≥ 15 minutes [1]: yes
EC50 [2]: 70 nM

CS(=O)(=O)c1ccc(Nc2nc(-c3ccncc3)c(CO)s2)cc1 [SR-33795, (2-((4-(Methylsulfonyl)phenyl)amino)-4-(pyridin-4-yl)thiazol-5-yl)methanol]
Stabilty in human microsomes ≥ 15 minutes [1]: yes
EC50 [2]: 350 nM

COc1cc(-c2nc(Nc3ccc(S(C)(=O)=O)cc3)sc2CO)cc(OC)n1 [SR-33796, (4-(2,6-Dimethoxypyridin-4-yl)-2-((4-(methylsulfonyl)phenyl)amino)thiazol-5-yl)methanol]
Stabilty in human microsomes ≥ 15 minutes [1]: yes
EC50 [2]: 450 nM

COc1cc(-c2nc(Nc3ccc(S(N)(=O)=O)cc3)sc2CO)cc(OC)n1 [SR-33797, 4-((4-(2,6-Dimethoxypyridin-4-yl)-5-(hydroxymethyl)thiazol-2-yl)amino)benzenesulfonamide]
Stabilty in human microsomes ≥ 15 minutes [1]: yes
EC50 [2]: 45 nM

Cc1cc(-c2nc(Nc3ccc(S(N)(=O)=O)cc3)sc2CO)cc(C)n1 [SR-33798, 4-((4-(2,6-Dimethylpyridin-4-yl)-5-(hydroxymethyl)thiazol-2-yl)amino)benzenesulfonamide]
Stabilty in human microsomes ≥ 15 minutes [1]: yes
EC50 [2]: 20 nM

Cc1cc(-c2nc(Nc3ccc(S(C)(=O)=O)cc3)sc2CO)ccn1 [SR-33799, (4-(2-Methylpyridin-4-yl)-2-((4-(methylsulfonyl)phenyl)amino)thiazol-5-yl)methanol]
Stabilty in human microsomes ≥ 15 minutes [1]: yes
EC50 [2]: 60 nM

COc1cc(-c2nc(Nc3ccc(S(C)(=O)=O)c(Cl)c3)sc2CO)cc(OC)n1 [SR-33800, (2-((3-Chloro-4-(methylsulfonyl)phenyl)amino)-4-(2,6-dimethoxypyridin-4-yl)thiazol-5-yl)methanol]
Stabilty in human microsomes ≥ 15 minutes [1]: yes
EC50 [2]: 55 nM

Cc1cc(-c2nc(Nc3ccc(S(=O)(=O)O)cc3)sc2CO)cc(C)n1 [SR-33801, 4-((4-(2,6-Dimethylpyridin-4-yl)-5-(hydroxymethyl)thiazol-2-yl)amino)benzenesulfonic acid]
Stabilty in human microsomes ≥ 15 minutes [1]: yes
EC50 [2]: 40 nM

O=S(=O)(O)c1ccc(Nc2nc(-c3ccncc3)c(CO)s2)cc1 [SR-33878, 4-((5-(Hydroxymethyl)-4-(pyridin-4-yl)thiazol-2-yl)amino)benzenesulfonic acid]
Stabilty in human microsomes ≥ 15 minutes [1]: yes
EC50 [2]: 300 nM

CC(C)NS(=O)(=O)c1ccc(-c2csc(Nc3ccc(S(N)(=O)=O)cc3)n2)cc1 [SR-34770, N-isopropyl-4-(2-((4-sulfamoylphenyl)amino)thiazol-4-yl)benzenesulfonamide]
Stabilty in human microsomes ≥ 15 minutes [1]: yes
EC50 [2]: 300 nM

NS(=O)(=O)c1ccc(Nc2nc(-c3ccc(S(=O)(=O)Nc4ccccc4)cc3)c(CO)s2)cc1 [SR-34773, 4-(5-(Hydroxymethyl)-2-((4-sulfamoylphenyl)amino)thiazol-4-yl)-N-phenylbenzenesulfonamide]
Stabilty in human microsomes ≥ 15 minutes [1]: yes
EC50 [2]: 300 nM

CC(C)NS(=O)(=O)c1ccc(-c2nc(Nc3ccc(S(N)(=O)=O)cc3)sc2CO)cc1 [SR-34776, 4-(5-(Hydroxymethyl)-2-((4-sulfamoylphenyl)amino)thiazol-4-yl)-N-isopropylbenzenesulfonamide]
Stabilty in human microsomes ≥ 15 minutes [1]: yes
EC50 [2]: 100 nM

Cc1cc(-c2nc(Nc3ccc(S(C)(=O)=O)cc3)sc2CCl)ccn1 [SR-34893, 5-(Chloromethyl)-4-(2-methylpyridin-4-yl)-N-(4-(methylsulfonyl)phenyl)thiazol-2-amine]
Stabilty in human microsomes ≥ 15 minutes [1]: yes
EC50 [2]: 400 nM

From patent US20240150338A1, “COMPOUNDS AND USE THEREOF FOR TREATMENT OF NEURODEGENERATIVE, DEGENERATIVE AND METABOLIC DISORDERS” (University of Florida Research Foundation, Incorporated, priority 2021, published 2024)
